Legend:
[1] = The activity to inhibit microtubule assembly, activity expressed as ED50 of compound/ ED50 of paclitaxel; format: functional
B16 = test: The cytotoxic activity was measured against B16 melanoma cells, activity expressed as ED50 of compound/ ED50 of paclitaxel; format: functional, Mus musculus

SMILES	Activity [1]	Cytotoxicity (B16)
CC(=O)O[C@H]1C(=O)[C@@]2(C)C([C@H](OC(=O)c3ccccc3)[C@]3(O)C[C@H](OC(=O)[C@H](O)[C@@H](NC(=O)c4ccccc4)c4ccccc4)C(C)=C1C3(C)C)[C@]1(OC(C)=O)CO[C@@H]1C[C@@H]2OC(=O)c1cccc(C(C)C)c1 (stereo not given in full)	> 32	–
CC(=O)O[C@H]1C(=O)[C@]2(C)[C@@H](OC(=O)c3ccccc3)C[C@H]3OC[C@@]3(OC(C)=O)[C@H]2[C@H](OC(=O)c2ccccc2)[C@]2(O)C[C@H](OC(=O)[C@H](O)[C@@H](NC(=O)c3ccccc3)c3ccccc3)C(C)=C1C2(C)C [PACLITAXEL C7 BENZOIC ACID ESTER]	4.1	9.7
CC(=O)O[C@H]1C(=O)[C@]2(C)[C@@H](OC(=O)c3cccc(N)c3)C[C@H]3OC[C@@]3(OC(C)=O)[C@H]2[C@H](OC(=O)c2ccccc2)[C@]2(O)C[C@H](OC(=O)[C@H](O)[C@@H](NC(=O)c3ccccc3)c3ccccc3)C(C)=C1C2(C)C	1.5	7.1
CC(=O)O[C@H]1C(=O)[C@]2(C)[C@@H](OC(=O)CCl)C[C@H]3OC[C@@]3(OC(C)=O)[C@H]2[C@H](OC(=O)c2ccccc2)[C@]2(O)C[C@H](OC(=O)[C@H](O)[C@@H](NC(=O)c3ccccc3)c3ccccc3)C(C)=C1C2(C)C	1.6	0.92
CC(=O)O[C@H]1C(=O)[C@]2(C)[C@@H](OC(=O)c3ccc(N)cc3)C[C@H]3OC[C@@]3(OC(C)=O)[C@H]2[C@H](OC(=O)c2ccccc2)[C@]2(O)C[C@H](OC(=O)[C@H](O)[C@@H](NC(=O)c3ccccc3)c3ccccc3)C(C)=C1C2(C)C	1.7	17
CC(=O)O[C@H]1C(=O)[C@]2(C)[C@@H](OC(=O)c3cccc(N(C)C)c3)C[C@H]3OC[C@@]3(OC(C)=O)[C@H]2[C@H](OC(=O)c2ccccc2)[C@]2(O)C[C@H](OC(=O)[C@H](O)[C@@H](NC(=O)c3ccccc3)c3ccccc3)C(C)=C1C2(C)C	22	–
CC(=O)O[C@H]1C(=O)[C@]2(C)[C@@H](OC(=O)c3cc(N=[N+]=[N-])cc([N+](=O)[O-])c3)C[C@H]3OC[C@@]3(OC(C)=O)[C@H]2[C@H](OC(=O)c2ccccc2)[C@]2(O)C[C@H](OC(=O)[C@H](O)[C@@H](NC(=O)c3ccccc3)c3ccccc3)C(C)=C1C2(C)C	> 24	–
CC(=O)O[C@H]1C(=O)[C@@]2(C)[C@H]([C@H](OC(=O)c3ccccc3)[C@]3(O)C[C@H](OC(=O)[C@H](O)[C@@H](NC(=O)c4ccccc4)c4ccccc4)C(C)=C1C3(C)C)[C@]1(OC(C)=O)CO[C@@H]1C[C@@H]2O [PACLITAXEL]	1	1
CC(=O)O[C@H]1C(=O)[C@]2(C)[C@@H](OC(=O)CI)C[C@H]3OC[C@@]3(OC(C)=O)[C@H]2[C@H](OC(=O)c2ccccc2)[C@]2(O)C[C@H](OC(=O)[C@H](O)[C@@H](NC(=O)c3ccccc3)c3ccccc3)C(C)=C1C2(C)C	3.3	3.7
CC(=O)O[C@H]1C(=O)[C@]2(C)[C@@H](OC(=O)c3cccc(N=[N+]=[N-])c3)C[C@H]3OC[C@@]3(OC(C)=O)[C@H]2[C@H](OC(=O)c2ccccc2)[C@]2(O)C[C@H](OC(=O)[C@H](O)[C@@H](NC(=O)c3ccccc3)c3ccccc3)C(C)=C1C2(C)C	> 24	–
CC(=O)O[C@H]1C(=O)[C@]2(C)[C@@H](OC(=O)c3cc(N)cc([N+](=O)[O-])c3)C[C@H]3OC[C@@]3(OC(C)=O)[C@H]2[C@H](OC(=O)c2ccccc2)[C@]2(O)C[C@H](OC(=O)[C@H](O)[C@@H](NC(=O)c3ccccc3)c3ccccc3)C(C)=C1C2(C)C	4.4	16
CC(=O)O[C@H]1C(=O)[C@]2(C)[C@@H](OC(=O)c3ccc(N=[N+]=[N-])cc3)C[C@H]3OC[C@@]3(OC(C)=O)[C@H]2[C@H](OC(=O)c2ccccc2)[C@]2(O)C[C@H](OC(=O)[C@H](O)[C@@H](NC(=O)c3ccccc3)c3ccccc3)C(C)=C1C2(C)C	21	30
